One assay deals with 5‐HT2A receptor (Rattus norvegicus, UniProt P14842). In words: 5‐HT2A competition binding assay ([3H]ketanserin, frontal cortex membranes). Further details: from tissue; host or cells: rat (Sprague-Dawley) frontal cortex membranes. To be noted: 1 nM [3H]ketanserin.
In assay [1] the target is T1, 5‐HT1A receptor (Rattus norvegicus, UniProt P19327).
T1 construct: 80 μg of hippocampal membrane suspension (the 5‐HT1A assay); from tissue; host or cells: rat (Sprague-Dawley) hippocampus membranes
T1 sequence (P19327 1-422): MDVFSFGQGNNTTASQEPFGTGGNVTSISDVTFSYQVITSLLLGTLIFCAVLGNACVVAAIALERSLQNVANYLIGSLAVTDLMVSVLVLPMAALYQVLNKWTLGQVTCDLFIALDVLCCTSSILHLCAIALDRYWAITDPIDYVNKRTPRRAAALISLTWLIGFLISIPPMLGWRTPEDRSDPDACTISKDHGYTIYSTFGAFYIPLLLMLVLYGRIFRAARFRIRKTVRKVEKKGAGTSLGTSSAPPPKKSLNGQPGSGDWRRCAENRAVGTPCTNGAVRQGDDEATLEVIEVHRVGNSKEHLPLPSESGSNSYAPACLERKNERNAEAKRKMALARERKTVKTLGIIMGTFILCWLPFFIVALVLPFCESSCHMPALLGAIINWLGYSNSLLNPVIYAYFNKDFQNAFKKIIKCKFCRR
Kind of assay: 5‐HT1A receptor activation in the [35S]GTP‐γ‐S assay (hippocampal membranes). The format is biochemical. To be noted: [35S]GTPγS; for Emax: read-out: Emax (%) ± SEM, 5‐HT1A receptor G‐protein stimulation; for agonist activity for the 5‐HT1A receptor (classification in words): efficacy compared with 8‐OH‐DPAT. Here is the method:
Seven compound concentrations equally spaced on a log scale (10–4 M to 10–10 M) were incubated in duplicate with hippocampal membrane preparations (5μg per well) in assay buffer (50 mM Tris‐HCl, pH = 7.4, 1 mM EGTA, 3 mM MgCl2, 100 mM NaCl, and 30 μM GDP) and 0.08 nM [^35S]GTP‐γ‐S (specific activity: 1250 Ci mmole^−1, Revvity). Nonspecific binding was determined with 10μM of unlabeled GTP‐γ‐S. The final DMSO concentration in the assay was 5%. The reaction mixture was incubated for 90 min. at 30 °C on an orbital shaker set at 250 rpm. Next, the reaction mixture was deposited under vacuum with the FilterMate Harvester (Revvity, USA) onto Unifilter GF/C Plates (Revvity, MA, USA) presoaked with wash buffer (50 mM Tris‐HCl, pH = 7.4). The wells were then rapidly washed with 2 mL of wash buffer. Filter plates were dried overnight at room temperature. Once completely dry, 35 μl of MicroScint PS (Revvity, MA, USA) scintillation fluid was added to each well. Radioactivity was counted in a MicroBeta2 LumiJet scintillation counter (Revvity, MA, USA). Data were analyzed with GraphPad Prism 5.0 software (GraphPad Software, San Diego California USA, www.graphpad.com). The curves were fitted with three‐parameter non‐linear regression model.

For another assay, the target named is T2, 5‐HT2C receptor (Rattus norvegicus, UniProt P08909).
T2 construct: 10 μM pargyline and 160μg of the frontal cortex membrane suspension; from tissue; host or cells: rat (Sprague-Dawley) frontal cortex membranes
T2 sequence (P08909 33-460): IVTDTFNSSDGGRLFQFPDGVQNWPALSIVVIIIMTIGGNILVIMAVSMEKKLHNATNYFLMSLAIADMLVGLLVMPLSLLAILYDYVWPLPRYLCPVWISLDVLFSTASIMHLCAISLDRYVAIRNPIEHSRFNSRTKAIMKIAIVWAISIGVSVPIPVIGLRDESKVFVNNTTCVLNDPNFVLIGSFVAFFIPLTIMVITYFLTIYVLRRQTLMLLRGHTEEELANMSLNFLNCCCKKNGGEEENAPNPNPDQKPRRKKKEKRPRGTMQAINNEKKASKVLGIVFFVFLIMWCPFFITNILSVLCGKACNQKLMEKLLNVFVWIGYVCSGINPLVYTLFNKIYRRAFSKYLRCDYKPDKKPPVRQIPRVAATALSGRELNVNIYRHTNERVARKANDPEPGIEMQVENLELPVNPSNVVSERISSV
In words: 5‐HT2C competition binding assay ([3H]mesulergine, frontal cortex membranes). Particulars: 5 nM [3H]mesulergine. Here is the method: (§1) Sprague‐Dawley rats were sacrificed by isoflurane overdose. Brains were rapidly removed and placed on ice. Hippocampi (for the 5‐HT1A assay) and frontal cortices (for the 5‐HT2A and 5‐HT2C assays) were dissected on a Petri dish. The tissue from 10 rats was homogenized in 30 vol. homogenization buffer (50 mM Tris–HCl, […], 1 mM EDTA, 1 mM dithiothreitol) with a handheld Teflon‐glass homogenizer. The homogenate was centrifuged at 48,000 × g at 4 °C for 15 min. The pellet was suspended and homogenized in the homogenization buffer and incubated for 10 min. at 36 °C. The centrifugation and suspension steps were repeated twice. The final pellet was homogenized in 5 vol. 50 mM Tris–HCl, pH = 7.4 buffer and stored at −80 °C for no longer than 6 months. […] For the 5‐HT2C assay, compounds were incubated in duplicate with 5 nM [^3H]mesulergine (specific activity: 80.2 Ci mmol^−1, Revvity, MA, USA) for 60 min. at 36 °C in a 50 mM Tris‐HCl (pH 7.4) buffer, supplemented with 5 mM MgCl2, 140 mM NaCl, 1 mM DTT, 1 mM CaCl2, 10 μM pargyline and 160μg of the frontal cortex membrane suspension. Non‐specific binding was determined with 10μM serotonin. The final DMSO concentration in the assay was 5%. After incubation, the reaction mixture was deposited onto Unifilter GF/C plates (Revvity, MA, USA) presoaked in 0.4% PEI (or 0.4% PEI and 0.5% Triton X‐100 for the 5‐HT2C assay) for 1 h with the FilterMate‐96 Harvester (Revvity, MA, USA). Then, each well was washed with 2 mL of 50 mM Tris–HCl (pH 7.4) buffer to separate bound ligands from free and the plates were left to dry overnight. Then, 35μl of Microscint‐20 scintillation fluid (Revvity, MA, USA) was added to each filter well and left to equilibrate for 2h. Filter‐bound radioactivity was counted in a MicroBeta2 LumiJet scintillation counter (Revvity, MA, USA). Binding curves were fitted with one site non‐linear regression. Binding affinity (pKi and Ki) for each compound was calculated from the […] values with the Cheng‐Prusoff equation from two separate experiments.

In assay [2] the target is T1, 5‐HT1A receptor. In words: 5‐HT1A competition binding assay ([3H]8‐OH‐DPAT, hippocampal membranes). To be noted: 1 nM [3H]8‐OH‐DPAT. Here is the method:
as §1

Setting [3] is: 95% CI in brackets, read-out: 5‐HT2A Ki (95% CI).
Where [4] appears, read: rat hippocampal membranes, 95% CI in brackets, read-out: EC50 (95% CI, μM), 5‐HT1A receptor G‐protein stimulation.
Setting [5] is: rat hippocampal membranes, read-out: pEC50, 5‐HT1A receptor G‐protein stimulation (converted).
[6] abbreviates: 95% CI in brackets, read-out: 5‐HT2C Ki (95% CI).
Setting [7] is: 95% CI in brackets, read-out: 5‐HT1A Ki (95% CI).
Setting [8] is: read-out: 5‐HT2A pKi (converted).
Where [9] appears, read: read-out: 5‐HT2C pKi (converted).
Setting [10] is: read-out: 5‐HT1A pKi (converted).

Experimental findings from article PMC12321279, “Novel 4,5‐Dihydrothiazole‐Phenylpiperazine Derivatives: Synthesis, Docking Studies and Pharmacological Evaluation as Serotonergic Agents” (Chemmedchem, 2025) are described below.

Read-outs that look alike come from different tables or passages of the source.

Sequence of 5‐HT2A receptor (P14842 whole entry): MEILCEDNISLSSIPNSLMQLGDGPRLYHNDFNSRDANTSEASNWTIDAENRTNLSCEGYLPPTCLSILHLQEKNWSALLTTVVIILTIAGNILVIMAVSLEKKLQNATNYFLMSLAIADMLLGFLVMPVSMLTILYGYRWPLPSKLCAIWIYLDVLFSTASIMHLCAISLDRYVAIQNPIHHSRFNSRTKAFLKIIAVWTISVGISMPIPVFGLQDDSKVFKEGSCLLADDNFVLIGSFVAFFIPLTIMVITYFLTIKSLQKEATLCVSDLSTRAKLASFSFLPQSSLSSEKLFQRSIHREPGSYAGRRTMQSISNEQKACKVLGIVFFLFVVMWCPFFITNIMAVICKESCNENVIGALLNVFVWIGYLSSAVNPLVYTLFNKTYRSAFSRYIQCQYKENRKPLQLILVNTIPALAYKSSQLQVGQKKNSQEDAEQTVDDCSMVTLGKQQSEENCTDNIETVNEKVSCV

Take `O=C(NCCCN1CCN(c2ccccc2C2=NCCS2)CC1)c1ccccn1` [FG‐1, N‐(3‐(4‐(2‐(4,5‐dihydrothiazol‐2‐yl) phenyl) piperazin‐1‐yl) propyl) picolinamide]: the figures for the Ki on 5‐HT2A receptor (setting [3]), on 5‐HT2C receptor (setting [6]) and at 5‐HT1A receptor [2] (setting [7]) were 3.13 µM, 6.86 µM and 2.35 µM, respectively. Moreover, the EC50 on 5‐HT1A receptor [1] (setting [4]) is 16.5 µM; on 5‐HT1A receptor [1] (setting [5]) it was 20 µM. Also, the Emax on 5‐HT1A receptor [1] (rat hippocampal membranes) amounted to 138 ± 11.5%.
As to `O=C(NCCCN1CCN(c2cccc(C3=NCCS3)c2)CC1)c1ccccn1` [FG‐2, N‐(3‐(4‐(3‐(4,5‐dihydrothiazol‐2‐yl) phenyl) piperazin‐1‐yl) propyl) picolinamide], the Ki at 5‐HT2A receptor (setting [3]) was 2.9 µM; on 5‐HT2A receptor (setting [8]), 2.95 µM; at 5‐HT2C receptor (setting [6]) it was 0.816 µM; at 5‐HT2C receptor (setting [9]), 0.832 µM; on 5‐HT1A receptor [2] (setting [7]), 1.86 µM. Besides, the EC50 at 5‐HT1A receptor [1] (setting [4]) was 125 µM. In addition, the Emax on 5‐HT1A receptor [1] (rat hippocampal membranes) was 136 ± 10.2%.
Turning to `O=C(NCCCN1CCN(c2ccccc2C2=NCCS2)CC1)c1ccncc1` [FG‐4, N‐(3‐(4‐(2‐(4,5‐dihydrothiazol‐2‐yl) phenyl) piperazin‐1‐yl) propyl) isonicotinamide], the Ki is 4.7 µM at 5‐HT2A receptor (setting [3]), 7.28 µM at 5‐HT2C receptor (setting [6]) and 1.54 µM at 5‐HT1A receptor [2] (setting [7]). In addition, the maximal response (Emax) at 5‐HT1A receptor [1] (rat hippocampal membranes) is 132 ± 14.9%. Also, the EC50 at 5‐HT1A receptor [1] (setting [5]) is 50.1 µM.
In the case of `O=C(NCCCN1CCN(c2cccc(C3=NCCS3)c2)CC1)c1ccncc1` [FG‐5, N‐(3‐(4‐(3‐(4,5‐dihydrothiazol‐2‐yl) phenyl) piperazin‐1‐yl) propyl) isonicotinamide], the Ki at 5‐HT2A receptor (setting [3]) was determined as 4.43 µM; at 5‐HT2C receptor (setting [6]), 12.5 µM; at 5‐HT1A receptor [2] (setting [7]), 1.1 µM. The EC50 at 5‐HT1A receptor [1] (setting [4]) came to 18.2 µM. For the same compound, on 5‐HT1A receptor [1] (rat hippocampal membranes), the maximal response (Emax) worked out at 185 ± 17.6%.
Regarding `O=C(NCCCN1CCN(c2ccc(C3=NCCS3)cc2)CC1)c1ccncc1` [FG‐6, N‐(3‐(4‐(4‐(4,5‐dihydrothiazol‐2‐yl) phenyl) piperazin‐1‐yl) propyl) isonicotinamide], the Ki at 5‐HT2A receptor (setting [3]) is 4.6 µM; at 5‐HT2C receptor (setting [6]), 2.21 µM; at 5‐HT2C receptor (setting [9]) it was 2.24 µM; on 5‐HT1A receptor [2] (setting [10]), 26.3 µM. The EC50 on 5‐HT1A receptor [1] (setting [4]) turned out to be 9.4 µM. On 5‐HT1A receptor [1] (rat hippocampal membranes), the maximal response (Emax) is 184 ± 11%. For the same compound, the “agonist activity for the 5‐HT1A receptor (classification in words)” value (“agonist activity for the 5‐HT1A receptor” for short) at 5‐HT1A receptor [1] was “full agonists”.
Take `O=C1C2C3C=CC(C3)C2C(=O)N1OCCCN1CCN(c2ccccc2C2=NCCS2)CC1` (stereo not drawn) [FG‐7, 2‐(3‐(4‐(2‐(4,5‐dihydrothiazol‐2‐yl) phenyl) piperazin‐1‐yl) propoxy)‐3a,4,7,7a‐tetrahydro‐1 H‐4,7‐methanoisoindole‐1,3(2 H)‐dione]: the Ki on 5‐HT2A receptor (setting [3]) was 2.86 µM; on 5‐HT2C receptor (setting [6]), 80.8 µM; on 5‐HT1A receptor [2] (setting [7]), 0.054 µM. On 5‐HT1A receptor [1] (setting [4]), the EC50 was 3.01 µM. For the same compound, the Emax on 5‐HT1A receptor [1] (rat hippocampal membranes) came out at 177 ± 3.3%. At 5‐HT1A receptor [1], the “agonist activity for the 5‐HT1A receptor” value is recorded as “full agonists”.
For the compound `O=C1C2C3C=CC(C3)C2C(=O)N1OCCCN1CCN(c2cccc(C3=NCCS3)c2)CC1` (stereo not drawn) [FG‐8, 2‐(3‐(4‐(3‐(4,5‐dihydrothiazol‐2‐yl) phenyl) piperazin‐1‐yl) propoxy)‐3a,4,7,7a‐tetrahydro‐1H‐4,7‐methanoisoindole‐1,3(2H)‐dione], the Ki is 1.1 µM on 5‐HT2A receptor (setting [3]); 1.15 µM at 5‐HT2A receptor (setting [8]); 0.046 µM at 5‐HT2C receptor (setting [6]); 0.0468 µM at 5‐HT2C receptor (setting [9]); 0.71 µM on 5‐HT1A receptor [2] (setting [7]); 0.724 µM on 5‐HT1A receptor [2] (setting [10]). In addition, the EC50 on 5‐HT1A receptor [1] (setting [4]) was found to be 7.9 µM. Further, the maximum response (Emax) at 5‐HT1A receptor [1] (rat hippocampal membranes) is 184 ± 6.6%. Further, the “agonist activity for the 5‐HT1A receptor” value at 5‐HT1A receptor [1] was “full agonists”.
Consider `O=C(NCCCN1CCN(c2ccc(C3=NCCS3)cc2)CC1)C1CC2C=CC1C2` (stereo not drawn) [FG‐18, Endo‐ N‐(3‐(4‐(4‐(4,5‐dihydrothiazol‐2‐yl)phenyl)piperazin‐1‐yl)propyl) bicyclo[2.2.1]hept‐5‐ene‐2‐carboxamide], for which the values for the Ki on 5‐HT2A receptor (setting [3]), at 5‐HT2C receptor (setting [6]) and at 5‐HT1A receptor [2] (setting [10]) were 2.73 µM, 0.017 µM and 20 µM, respectively. In addition, at 5‐HT1A receptor [1] (rat hippocampal membranes), the “Emax (%) ± SEM, 5‐HT1A receptor G‐protein stimulation” value is 144 ± 8.2%. Moreover, the EC50 is 8.8 µM on 5‐HT1A receptor [1] (setting [4]) and 8.91 µM on 5‐HT1A receptor [1] (setting [5]).
